Active and inactive are the calls of the source. Rule as the data show it, for most assays here: actives have a measured Kd and inactives only a lower limit.

The target of test [1] is GTP-binding nuclear protein Ran (Homo sapiens, UniProt P62826).
Test [2] has as its target Actin-related protein 2 (Homo sapiens, UniProt P61160).
For test [3], the target named is T1, Receptor-type tyrosine-protein kinase FLT3 (Homo sapiens, UniProt P36888).
T1 sequence (P36888 whole entry): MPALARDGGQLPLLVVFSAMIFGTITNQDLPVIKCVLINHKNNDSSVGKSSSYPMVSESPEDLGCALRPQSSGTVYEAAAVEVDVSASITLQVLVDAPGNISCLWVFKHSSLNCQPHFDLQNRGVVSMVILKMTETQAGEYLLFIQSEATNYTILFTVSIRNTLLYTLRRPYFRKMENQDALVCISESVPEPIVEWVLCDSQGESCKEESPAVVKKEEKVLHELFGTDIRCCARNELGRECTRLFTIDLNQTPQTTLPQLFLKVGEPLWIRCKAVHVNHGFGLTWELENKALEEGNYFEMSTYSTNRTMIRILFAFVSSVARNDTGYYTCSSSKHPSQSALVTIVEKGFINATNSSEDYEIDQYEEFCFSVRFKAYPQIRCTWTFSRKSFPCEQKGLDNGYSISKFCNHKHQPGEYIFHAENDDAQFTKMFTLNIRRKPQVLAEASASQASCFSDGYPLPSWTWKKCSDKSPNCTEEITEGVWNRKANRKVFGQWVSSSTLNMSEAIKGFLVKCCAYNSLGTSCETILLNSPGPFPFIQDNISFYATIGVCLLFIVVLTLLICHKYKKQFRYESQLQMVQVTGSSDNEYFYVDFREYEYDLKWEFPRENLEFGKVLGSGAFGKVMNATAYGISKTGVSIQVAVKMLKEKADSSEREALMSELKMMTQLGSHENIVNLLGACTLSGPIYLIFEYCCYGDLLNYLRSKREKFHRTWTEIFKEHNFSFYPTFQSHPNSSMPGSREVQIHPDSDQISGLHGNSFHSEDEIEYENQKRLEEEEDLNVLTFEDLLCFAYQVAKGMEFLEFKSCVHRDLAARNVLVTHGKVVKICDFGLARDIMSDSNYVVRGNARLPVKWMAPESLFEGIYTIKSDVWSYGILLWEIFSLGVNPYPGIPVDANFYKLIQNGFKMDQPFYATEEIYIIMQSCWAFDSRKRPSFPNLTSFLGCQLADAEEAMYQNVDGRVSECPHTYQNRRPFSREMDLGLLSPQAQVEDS

In test [4] the target is Cyclin-dependent kinase 6 (Homo sapiens, UniProt Q00534).
The target in test [5] is Ras-related protein Rab-6A (Homo sapiens, UniProt P20340).
Test [6] deals with Casein kinase I isoform gamma-1 (Homo sapiens, UniProt Q9HCP0).
The target in test [7] is Receptor-interacting serine/threonine-protein kinase 2 (Homo sapiens, UniProt O43353).
Test [8] has as its target BMP-2-inducible protein kinase (Homo sapiens, UniProt Q9NSY1).
The target of test [9] is Calcium/calmodulin-dependent protein kinase type II subunit delta (Homo sapiens, UniProt Q13557).
The target of test [10] is T2, Peroxisomal acyl-coenzyme A oxidase 3 (Homo sapiens, UniProt O15254).
T2 sequence (O15254 whole entry): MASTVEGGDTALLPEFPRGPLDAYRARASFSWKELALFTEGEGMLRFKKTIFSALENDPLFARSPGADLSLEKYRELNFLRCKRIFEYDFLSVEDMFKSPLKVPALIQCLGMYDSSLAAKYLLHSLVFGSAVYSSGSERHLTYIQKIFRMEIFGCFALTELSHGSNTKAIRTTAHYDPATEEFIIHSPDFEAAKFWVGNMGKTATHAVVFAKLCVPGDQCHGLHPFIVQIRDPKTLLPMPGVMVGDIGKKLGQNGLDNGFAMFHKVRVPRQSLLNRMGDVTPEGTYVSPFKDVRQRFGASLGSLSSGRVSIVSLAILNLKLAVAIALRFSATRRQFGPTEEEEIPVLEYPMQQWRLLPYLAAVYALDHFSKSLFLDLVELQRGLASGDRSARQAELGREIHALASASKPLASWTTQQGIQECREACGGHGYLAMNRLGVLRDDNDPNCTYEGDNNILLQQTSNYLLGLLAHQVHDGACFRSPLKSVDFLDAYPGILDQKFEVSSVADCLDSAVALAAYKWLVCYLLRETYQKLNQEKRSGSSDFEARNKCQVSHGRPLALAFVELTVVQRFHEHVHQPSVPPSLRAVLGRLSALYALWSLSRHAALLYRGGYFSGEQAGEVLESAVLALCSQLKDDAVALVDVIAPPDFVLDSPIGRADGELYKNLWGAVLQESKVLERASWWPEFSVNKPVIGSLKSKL

For test [11], the target named is Myosin-14 (Homo sapiens, UniProt Q7Z406).
The target in test [12] is Protein kinase C alpha type (Homo sapiens, UniProt P17252).
Test [13] deals with T3, Calcium/calmodulin-dependent protein kinase type IV (Homo sapiens, UniProt Q16566).
T3 sequence (Q16566 whole entry): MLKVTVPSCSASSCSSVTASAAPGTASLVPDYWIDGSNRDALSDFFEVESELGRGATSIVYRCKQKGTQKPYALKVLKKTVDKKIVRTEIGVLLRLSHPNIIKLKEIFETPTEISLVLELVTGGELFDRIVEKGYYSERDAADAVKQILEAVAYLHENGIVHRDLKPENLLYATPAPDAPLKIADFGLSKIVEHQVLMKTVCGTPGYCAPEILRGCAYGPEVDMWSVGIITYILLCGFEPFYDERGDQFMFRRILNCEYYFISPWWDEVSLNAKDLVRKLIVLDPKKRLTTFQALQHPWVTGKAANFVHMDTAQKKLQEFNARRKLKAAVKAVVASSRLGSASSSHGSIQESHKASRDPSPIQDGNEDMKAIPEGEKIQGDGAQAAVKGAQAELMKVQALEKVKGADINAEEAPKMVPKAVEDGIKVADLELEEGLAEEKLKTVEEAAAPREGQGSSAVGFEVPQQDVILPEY
Also: in the data inactive means no Kd found up to 30 µM.

Chain of Ras-related protein Rab-6A (P20340 whole entry, canonical isoform): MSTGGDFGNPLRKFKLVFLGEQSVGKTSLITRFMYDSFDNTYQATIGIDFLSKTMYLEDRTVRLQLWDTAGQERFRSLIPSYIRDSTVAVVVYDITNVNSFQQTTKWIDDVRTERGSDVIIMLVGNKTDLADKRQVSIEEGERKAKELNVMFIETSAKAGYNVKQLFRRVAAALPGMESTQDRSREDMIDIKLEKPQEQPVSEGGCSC
Chain of Casein kinase I isoform gamma-1 (Q9HCP0 whole entry, canonical isoform): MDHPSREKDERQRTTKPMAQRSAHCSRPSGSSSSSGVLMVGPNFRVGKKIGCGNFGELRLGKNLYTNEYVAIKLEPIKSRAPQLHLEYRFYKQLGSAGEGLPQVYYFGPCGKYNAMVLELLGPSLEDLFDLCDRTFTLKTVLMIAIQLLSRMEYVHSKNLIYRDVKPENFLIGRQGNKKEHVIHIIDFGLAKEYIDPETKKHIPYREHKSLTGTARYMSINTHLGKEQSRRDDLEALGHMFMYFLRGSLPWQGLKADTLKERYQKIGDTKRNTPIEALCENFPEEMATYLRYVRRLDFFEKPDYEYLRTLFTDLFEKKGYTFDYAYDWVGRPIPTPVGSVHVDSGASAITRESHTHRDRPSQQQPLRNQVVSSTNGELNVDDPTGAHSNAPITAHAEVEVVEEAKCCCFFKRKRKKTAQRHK
Chain of Cyclin-dependent kinase 6 (Q00534 whole entry): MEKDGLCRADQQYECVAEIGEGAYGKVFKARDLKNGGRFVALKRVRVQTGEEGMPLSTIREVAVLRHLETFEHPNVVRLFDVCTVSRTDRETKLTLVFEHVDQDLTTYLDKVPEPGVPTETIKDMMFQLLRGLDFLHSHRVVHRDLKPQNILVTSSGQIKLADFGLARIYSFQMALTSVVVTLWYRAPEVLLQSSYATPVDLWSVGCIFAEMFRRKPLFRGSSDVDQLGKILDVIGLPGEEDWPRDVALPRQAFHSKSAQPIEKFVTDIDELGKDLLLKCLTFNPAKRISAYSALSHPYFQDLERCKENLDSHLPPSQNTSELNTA
Chain of BMP-2-inducible protein kinase (Q9NSY1 whole entry): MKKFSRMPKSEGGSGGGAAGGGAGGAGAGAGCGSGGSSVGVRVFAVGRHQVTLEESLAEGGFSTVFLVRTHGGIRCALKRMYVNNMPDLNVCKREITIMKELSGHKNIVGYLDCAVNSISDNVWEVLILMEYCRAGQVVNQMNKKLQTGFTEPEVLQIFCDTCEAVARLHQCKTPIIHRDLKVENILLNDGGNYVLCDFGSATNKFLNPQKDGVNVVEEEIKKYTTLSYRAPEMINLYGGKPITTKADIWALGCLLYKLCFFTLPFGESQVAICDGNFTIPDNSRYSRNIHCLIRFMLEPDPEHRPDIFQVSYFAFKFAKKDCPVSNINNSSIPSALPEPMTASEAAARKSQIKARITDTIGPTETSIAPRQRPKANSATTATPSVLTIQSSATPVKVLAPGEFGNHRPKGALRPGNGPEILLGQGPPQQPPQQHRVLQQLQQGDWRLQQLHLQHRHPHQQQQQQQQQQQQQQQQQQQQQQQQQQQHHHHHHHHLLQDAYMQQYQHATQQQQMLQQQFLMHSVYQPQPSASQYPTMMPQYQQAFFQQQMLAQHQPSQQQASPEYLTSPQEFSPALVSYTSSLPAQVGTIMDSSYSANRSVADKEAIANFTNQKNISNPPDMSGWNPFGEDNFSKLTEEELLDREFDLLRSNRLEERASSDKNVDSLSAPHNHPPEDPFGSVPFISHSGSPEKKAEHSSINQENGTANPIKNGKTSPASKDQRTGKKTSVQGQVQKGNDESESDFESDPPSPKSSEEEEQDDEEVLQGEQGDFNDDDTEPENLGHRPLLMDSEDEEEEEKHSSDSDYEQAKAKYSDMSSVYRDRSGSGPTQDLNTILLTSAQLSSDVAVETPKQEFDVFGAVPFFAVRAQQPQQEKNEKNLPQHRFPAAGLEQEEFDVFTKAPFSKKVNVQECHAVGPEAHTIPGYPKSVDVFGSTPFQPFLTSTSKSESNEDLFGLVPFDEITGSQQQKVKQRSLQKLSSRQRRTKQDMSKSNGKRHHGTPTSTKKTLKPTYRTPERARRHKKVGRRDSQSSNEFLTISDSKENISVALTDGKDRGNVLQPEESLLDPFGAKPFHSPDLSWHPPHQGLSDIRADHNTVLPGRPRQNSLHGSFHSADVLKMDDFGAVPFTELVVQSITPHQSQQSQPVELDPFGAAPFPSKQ
Chain of Receptor-interacting serine/threonine-protein kinase 2 (O43353 whole entry): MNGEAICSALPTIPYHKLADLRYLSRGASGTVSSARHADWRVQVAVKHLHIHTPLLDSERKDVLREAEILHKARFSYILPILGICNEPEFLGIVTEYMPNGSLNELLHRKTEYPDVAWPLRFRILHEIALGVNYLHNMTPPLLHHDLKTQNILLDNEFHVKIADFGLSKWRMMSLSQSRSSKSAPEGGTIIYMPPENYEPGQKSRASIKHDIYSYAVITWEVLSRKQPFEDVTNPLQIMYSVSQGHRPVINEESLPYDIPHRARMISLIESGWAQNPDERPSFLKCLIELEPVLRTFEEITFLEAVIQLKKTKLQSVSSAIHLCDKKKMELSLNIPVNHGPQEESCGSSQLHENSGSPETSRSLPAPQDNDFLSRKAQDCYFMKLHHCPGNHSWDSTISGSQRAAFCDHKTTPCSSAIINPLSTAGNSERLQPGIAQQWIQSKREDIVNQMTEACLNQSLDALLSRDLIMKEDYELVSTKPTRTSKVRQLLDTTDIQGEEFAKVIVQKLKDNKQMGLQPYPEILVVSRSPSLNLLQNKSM
Chain of Calcium/calmodulin-dependent protein kinase type II subunit delta (Q13557 whole entry): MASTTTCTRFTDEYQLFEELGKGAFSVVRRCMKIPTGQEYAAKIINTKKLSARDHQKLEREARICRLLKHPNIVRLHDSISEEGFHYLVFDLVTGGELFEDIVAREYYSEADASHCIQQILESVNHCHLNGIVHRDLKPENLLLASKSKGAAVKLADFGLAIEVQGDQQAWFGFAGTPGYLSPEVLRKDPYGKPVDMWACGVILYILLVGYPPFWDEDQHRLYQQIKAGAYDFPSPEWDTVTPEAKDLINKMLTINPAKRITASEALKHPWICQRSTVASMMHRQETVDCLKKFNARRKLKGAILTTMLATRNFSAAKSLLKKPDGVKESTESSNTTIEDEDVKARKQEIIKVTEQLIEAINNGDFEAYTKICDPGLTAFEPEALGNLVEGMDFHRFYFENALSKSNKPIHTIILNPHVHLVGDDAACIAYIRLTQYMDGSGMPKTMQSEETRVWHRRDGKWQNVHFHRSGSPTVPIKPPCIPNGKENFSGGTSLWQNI

Usually Kd stands for the equilibrium constant for the complex coming apart. `C[C@@H](c1ccc2nccn2c1)n1nnc2ncc(-c3cnn(C)c3)nc21` [SAVOLITINIB]: the Kd in test [1], in test [2], in test [3], in test [4], in test [5] and in test [6] was > 30 µM (inactive) in each case. In addition, the Kd in test [7], in test [8], in test [9], in [10], in test [11] and in test [12] was > 30 µM (inactive) in each case.

As to `COC(=O)[C@@]1(O)C[C@H]2O[C@]1(C)n1c3ccccc3c3c4c(c5c6ccccc6n2c5c31)C(=O)NC4` [K-252A], the Kd in [1] was > 30 µM (inactive); in test [2], > 30 µM (inactive); in test [3], 0.227 µM (active); in test [4] it was 0.399 µM (active); in test [5] it was > 30 µM (inactive); in test [6] it was > 30 µM (inactive). Besides, the Kd is 0.09 µM (active) in test [8]; 0.19 µM (active) in test [9]; > 30 µM (inactive) in [10]; > 30 µM (inactive) in test [11]; > 30 µM (inactive) in test [13].

Regarding `CNC(=O)c1ccc(-c2cnc3ncc(Cc4ccc5ncccc5c4)n3n2)cc1F` [CAPMATINIB], the Kd in test [1], in test [3], in test [4], in [6], in test [7] and in test [8] was > 30 µM (inactive) in each case. Further, the Kd in test [9], in test [10], in [11], in test [13] and in [12] was > 30 µM (inactive) in each case.

For `N[C@@H]1CCCN(c2c(/C=C3\SC(=O)NC3=O)cccc2-c2ccccc2)C1`, the Kd in test [1], in test [2], in test [3], in test [5], in test [6] and in test [7] was > 30 µM (inactive) each time. The Kd in [8], in test [9], in test [10], in [11] and in test [12] was > 30 µM (inactive) in each case.

For `CN1CCC(COc2cnc(-c3cccc(Cn4nc(-c5cccc(C#N)c5)ccc4=O)c3)nc2)CC1` [TEPOTINIB], the Kd in [1], in [2], in test [3], in test [4], in test [5] and in [6] was > 30 µM (inactive) in each case. Further, the Kd in test [7], in test [8], in test [9], in test [10], in [13] and in [12] was > 30 µM (inactive) throughout.

Take `Cc1cc(-c2cc(O)ccc2Cl)cc2nnc(Nc3ccc(OCCN4CCCC4)cc3)nc12`: the Kd in test [1], in test [2], in test [3], in test [4], in test [5] and in test [6] was > 30 µM (inactive) throughout. The Kd in test [7] is 0.0009 µM (active); in test [8], > 30 µM (inactive); in test [9], > 30 µM (inactive); in [10], > 30 µM (inactive); in test [13] it was > 30 µM (inactive); in test [12], > 30 µM (inactive).

For the origin of these results see ChEMBL document CHEMBL3991601, “The target landscape of clinical kinase drugs” (Science, 2017).
